Experimental data taken from PMC6694155, “PTPσ inhibitors promote hematopoietic stem cell regeneration” (Nature Communications, 2019).
“And” between values parts separate entries of the source, which are not always exact repeats. Identical values can stand only once. “Also recorded” adds a separate entry of the source.

How the values were obtained:
panel of 21 Phosphatases = experiment: PhosphataseProfiler screen, whole panel; assay type: biochemical; conditions: DJ001 at 10 μM and 1 μM
Experimental: (§1) Compound DJ001 was evaluated in a PhosphataseProfiler™ screen at 10 μM and 1 μM (2.7 μg/mL and 0.27 μg/mL) concentrations at Eurofins Pharma Discovery Services UK (Study number UK022-0004033) against a panel of 21 Phosphatases. In each experiment, the respective reference antagonist/agonist was tested directly with DJ001 and the data were compared with historical values determined at Eurofins. DJ001 compound inhibition was calculated as percentage inhibition of the enzymatic activity compared with control.

[1] = test system: PPA (Protein Phosphatase 1); experiment: PhosphataseProfiler screen: PPA; assay type: biochemical; conditions: replicates, in % (unit assumed)
Experimental: as §1

Protein Phosphatase 5 = biological target: T1, Protein Phosphatase 5 (Homo sapiens, UniProt P53041); experiment: PhosphataseProfiler screen: PP5; assay type: biochemical; conditions: for Supplementary Figure 1: PP5 activity: replicates
T1 construct: purchased Eurofins Pharma Discovery Services UK
T1 sequence (P53041 1-499): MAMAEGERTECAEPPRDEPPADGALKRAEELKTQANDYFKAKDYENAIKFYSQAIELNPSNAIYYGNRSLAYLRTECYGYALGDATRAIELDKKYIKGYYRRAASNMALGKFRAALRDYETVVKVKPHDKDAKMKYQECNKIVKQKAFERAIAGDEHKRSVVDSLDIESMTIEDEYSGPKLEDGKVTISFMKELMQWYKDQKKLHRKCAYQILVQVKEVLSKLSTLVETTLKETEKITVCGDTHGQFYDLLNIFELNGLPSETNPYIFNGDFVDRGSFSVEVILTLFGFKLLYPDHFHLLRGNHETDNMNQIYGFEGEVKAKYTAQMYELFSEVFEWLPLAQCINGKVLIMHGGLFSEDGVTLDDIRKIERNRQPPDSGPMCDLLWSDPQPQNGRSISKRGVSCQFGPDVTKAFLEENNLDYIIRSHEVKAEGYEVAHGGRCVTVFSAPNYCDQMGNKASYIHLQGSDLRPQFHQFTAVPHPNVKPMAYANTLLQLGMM
Experimental: as §1

[2] = biological target: T2, PTPσ-p250GAP complex in BM KSL cells (Mus musculus, UniProt B0V2N1); experiment: Proximity ligation assay; assay type: cell-based; conditions: 1 μg/mL DJ001, 1 h
T2 construct: endogenous in cells; host or cells: primary bone marrow KSL (c-kit+ Sca-1+ lin-) cells of C57BL/6 mice
Experimental: A PLA assay was performed by using the Duolink In Situ Red Starter Kit (Millipore Sigma) to detect the binding between PTPσ and p250GAP proteins. BM KSL cells from C57BL/6 mice were sorted by fluorescence-activated cell sorting and then plated onto fibronectin pre-coated chamber slides overnight. The next day, cells were treated with 1 μg/mL DJ001 or vehicle (equal volume of DMSO) for 1 h at 37 °C. Cells were then fixed with 4% paraformaldehyde (PFA) for 20 min. The slides were blocked with Duolink blocking solution and incubated with rabbit anti-ARHGAP32 polyclonal antibody (Bioss Antibodies, #bs-9296R, 1:50 dilution) and goat anti-PTPσ (K-19) polyclonal antibody (Santa Cruz Biotechnology, #sc-10873, 1:50) overnight at 4 °C. Cells were imaged using a Leica SP8 Confocal Microscope equipped with a ×63 objective lens. A white light laser set to 580 nm was used to excite dsRed and a UV laser was used to excite 4′,6-diamidino-2-phenylindole (DAPI). Analysis was performed using the spots detection function in IMARIS 9.0.2 (Bitplane).

BM KSL cells = experiment: Gene expression of pro- and anti-apoptotic genes in irradiated BM KSL cells (qPCR); assay type: cell-based, mouse; design: key to Figure 3g: gene expression, Bax / Figure 3g: gene expression, Bcl-2 / Figure 3g: gene expression, Bcl-xL / Figure 3g: gene expression, Bim / Figure 3g: gene expression, Mcl1: fold change, 2^-ΔΔCt vs media-treated non-irradiated KSL, Gapdh-normalized
From the text: For all studies, RNA was isolated using the Qiagen RNeasy micro kit (Qiagen). RNA was reverse transcribed using the High-Capacity cDNA Reverse Transcription Kit (ThermoFisher Scientific) and was then used for quantitative PCR with SYBR Select Master Mix (Life Technologies). Values were normalized to housekeeping gene Gapdh/GAPDH and given as ΔΔCt values normalized to media-treated, non-irradiated BM KSL cells (2(−ΔΔC(T)) method)[67].

[3] = test system: progeny of irradiated human BM CD34+ cells in NSG mice; experiment: Human BM transplantation assay in NSG mice; assay type: in vivo
Experimental: Human BM mononuclear cells were purchased from AllCells. Cryopreserved human BM cells were recovered in IMDM + 10% FBS + 1% penicillin–streptomycin and then positively selected for CD34^+ stem/progenitor cells by using CD34 MicroBead Kit (Miltenyi Biotec, #130-046-702, 1:5). CD34^+ cells were cultured in human TSF media (IMDM, 10%FBS, 1% pen-strep, 20 ng/mL recombinant human TPO, 125 ng/mL recombinant human SCF, 50 ng/mL recombinant human Flt3 ligand (R&D Systems). The progeny of 2 × 10^5 irradiated, human BM CD34^+ cultured for 36 h and treated with DJ001 at 5 μg/mL, were transplanted via tail vein injection into 10–12-week-old NSG mice preconditioned with 275 cGy TBI. Multilineage donor hematopoietic cell engraftment was monitored in the PB and BM by flow cytometry. The PB or BM cells were stained with BV605-conjugated anti-mouse CD45 (BioLegend, #103139, 1:100), AF647-conjugated anti-human CD34 (BioLegend, #343618, 1:100), FITC-conjugated anti-human CD33 (BD Biosciences, #555626, 1:100), V450-conjugated anti-human CD45 (BD Biosciences, #560368, 1:100), APC-conjugated anti-human CD3 (BD Biosciences, #555342, 1:100), and APC-Cy7-conjugated anti-human CD19 (BD Biosciences, #557791, 1:100) antibodies.

[4] = BM KSL cells, 12 h post 300 cGy
[5] = irradiated BM KSL cells, qPCR, replicates
[6] = progeny of irradiated human BM CD34+ cells, individual mice, in % (unit assumed)

T2 sequence (B0V2N1 30-1907, one chain of several): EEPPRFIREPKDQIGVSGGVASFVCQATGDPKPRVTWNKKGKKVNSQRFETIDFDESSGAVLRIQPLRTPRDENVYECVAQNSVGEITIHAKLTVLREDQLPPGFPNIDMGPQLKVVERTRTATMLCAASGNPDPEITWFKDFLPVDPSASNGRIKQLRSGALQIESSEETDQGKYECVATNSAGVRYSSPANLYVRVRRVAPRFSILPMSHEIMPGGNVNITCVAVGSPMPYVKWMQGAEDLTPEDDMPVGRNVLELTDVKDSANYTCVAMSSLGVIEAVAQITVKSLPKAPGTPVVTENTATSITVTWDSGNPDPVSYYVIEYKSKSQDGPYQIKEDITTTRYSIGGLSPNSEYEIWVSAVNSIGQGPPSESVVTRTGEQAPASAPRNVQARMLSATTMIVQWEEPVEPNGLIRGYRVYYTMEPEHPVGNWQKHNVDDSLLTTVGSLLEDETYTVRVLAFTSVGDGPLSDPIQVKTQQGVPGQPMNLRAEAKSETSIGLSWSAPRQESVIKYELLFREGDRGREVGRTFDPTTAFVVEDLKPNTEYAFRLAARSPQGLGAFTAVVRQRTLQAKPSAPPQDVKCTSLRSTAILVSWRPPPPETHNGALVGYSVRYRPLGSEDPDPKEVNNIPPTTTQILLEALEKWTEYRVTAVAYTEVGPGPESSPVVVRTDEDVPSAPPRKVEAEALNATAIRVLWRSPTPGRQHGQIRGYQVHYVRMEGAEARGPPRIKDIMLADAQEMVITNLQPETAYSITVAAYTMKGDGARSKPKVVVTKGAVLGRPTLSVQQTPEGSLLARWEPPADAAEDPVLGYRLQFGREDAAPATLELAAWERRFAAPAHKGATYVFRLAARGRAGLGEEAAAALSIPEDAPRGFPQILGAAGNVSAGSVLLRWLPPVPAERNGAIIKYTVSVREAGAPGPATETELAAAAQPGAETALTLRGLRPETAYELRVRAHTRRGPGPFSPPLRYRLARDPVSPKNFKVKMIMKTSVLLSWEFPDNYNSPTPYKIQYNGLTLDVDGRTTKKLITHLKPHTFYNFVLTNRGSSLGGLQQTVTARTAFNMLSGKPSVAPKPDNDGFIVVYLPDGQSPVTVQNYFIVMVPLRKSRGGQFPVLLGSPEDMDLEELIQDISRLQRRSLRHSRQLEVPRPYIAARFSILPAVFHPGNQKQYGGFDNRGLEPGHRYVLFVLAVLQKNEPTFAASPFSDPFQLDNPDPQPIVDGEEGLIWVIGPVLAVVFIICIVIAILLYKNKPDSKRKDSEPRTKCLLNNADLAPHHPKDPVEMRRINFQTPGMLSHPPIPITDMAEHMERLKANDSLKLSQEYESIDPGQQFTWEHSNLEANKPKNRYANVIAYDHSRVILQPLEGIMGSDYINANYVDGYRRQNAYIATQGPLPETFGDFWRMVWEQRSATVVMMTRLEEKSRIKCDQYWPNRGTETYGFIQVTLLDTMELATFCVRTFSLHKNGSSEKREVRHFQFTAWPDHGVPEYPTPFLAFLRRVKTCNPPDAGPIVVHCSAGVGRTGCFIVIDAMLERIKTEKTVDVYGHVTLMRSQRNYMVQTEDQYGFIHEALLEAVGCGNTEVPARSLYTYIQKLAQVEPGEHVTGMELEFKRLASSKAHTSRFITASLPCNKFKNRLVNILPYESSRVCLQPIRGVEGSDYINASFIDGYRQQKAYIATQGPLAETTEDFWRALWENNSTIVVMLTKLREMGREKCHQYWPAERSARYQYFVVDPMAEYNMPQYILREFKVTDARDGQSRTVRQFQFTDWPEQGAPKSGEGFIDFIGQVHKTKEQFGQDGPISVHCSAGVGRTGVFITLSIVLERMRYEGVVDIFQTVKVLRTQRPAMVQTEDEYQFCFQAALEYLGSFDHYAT

O=C(/C=C\Nc1cccc([N+](=O)[O-])c1)c1ccccc1 [DJ001, (Z)-3-((3-nitrophenyl)amino)-1-phenylprop-2-en-1-one]
inhibitory activity against 20 other phosphatases (panel of 21 Phosphatases): no inhibitory activity
Supplementary Figure 1: PPA activity ([1]; 2.7 μg/mL DJ001): 101 and 93 and 96
Supplementary Figure 1: PPA activity ([1]; 0.27 g/mL DJ001): 96 and 90 and 101
Supplementary Figure 1: PP5 activity (Protein Phosphatase 5; 2.7 μg/mL DJ001): 58 and 54 and 60
Supplementary Figure 1: PP5 activity (Protein Phosphatase 5; 0.27 g/mL DJ001): 78 and 80 and 75
inhibitory activity against Protein Phosphatase 5 (Protein Phosphatase 5; DJ001 at 10 μM and 1 μM): only modest inhibitory activity
co-localization of PTPσ and p250GAP [2]: significantly decreased co-localization
expression of Bim, Bax, Puma, Bcl2 (BM KSL cells; [4]): no effect
expression of Mcl-1 and Bcl2l1 (BM KSL cells; [4]): increased the expression
Figure 3g: gene expression, Bax (BM KSL cells; [5]): 2.95 and 3.78 and 1.75
Figure 3g: gene expression, Bcl-2 (BM KSL cells; [5]): 1.73 and 1.94 and 1.28 and 1.59 and 1.76 and 1.06
Figure 3g: gene expression, Bcl-xL (BM KSL cells; [5]): 4.94 and 3.23 and 6.87 and 4.82 and 3.79 and 5.97
Figure 3g: gene expression, Bim (BM KSL cells; [5]): 2.95 and 3.78 and 2.75
Figure 3g: gene expression, Mcl1 (BM KSL cells; [5]): 1.95 and 1.78 and 2.55 and 0.81 and 1.62 and 1.96
Figure 3g: gene expression, Puma (BM KSL cells; [5]): 2.95 and 1.78 and 1.75
engraftment of human CD45+ cells, CD19+ B cells, CD33+ myeloid cells, and CD3+ T cells vs control ([3]; NSG mice, 12 weeks post transplant): several – fold increased multilineage engraftment; also recorded: substantially increased engraftment
Figure 5g (center left panel): human engraftment in NSG mice [3, 6]: 0.66 and 2.13 and 0.13 and 1.76 and 1.28 and 0.22 and 0.24 and 0.04 and 0.73 and 2.53 and 0.35
Figure 5g (center panel): human engraftment in NSG mice [3, 6]: 2.25 and 0.8 and 0.17 and 0.56 and 4.4 and 0.31 and 5 and 1.4 and 1.23 and 5.34 and 6.53
Figure 5g (center right panel): human engraftment in NSG mice [3, 6]: 0.24 and 0.34 and 1.91 and 0.16 and 0.67 and 0.92 and 0.14 and 0.94 and 0.48 and 4.07 and 1.41 and 1.1
Figure 5g (left panel): human engraftment in NSG mice [3, 6]: 4.16 and 2.8 and 0.36 and 1.45 and 9.56 and 0.9 and 12.2 and 3.82 and 4.68 and 14.9 and 12.5
Figure 5g (right panel): human engraftment in NSG mice [3, 6]: 0.25 and 1.48 and 0.96 and 0.1 and 0.49 and 1.86 and 0.23 and 1.47 and 1.13 and 2 and 5.49 and 5.38
